Source: the supplement of paper PMC10290057
Counter-ions that a name gives are not always drawn.

Key:
[1] = system: HCT116; assay: efficacy (fitted maximal change in viability relative to DMSO control); higher = less cytotoxic (negative = loss of viability); details: 48 h
[2] = system: HCT116; assay: AC50 cell viability (CellTiter-Glo); higher = less potent; details: 48 h
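Throughout, for AC50 cell viability (CellTiter-Glo): HCT116 colorectal carcinoma cells screened at five concentrations per compound, luminescent viability scaled between DMSO wells and empty wells on each plate, curves fitted per compound.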
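Throughout, for efficacy (fitted maximal change in viability relative to DMSO control): Luminescence-based viability readout, five doses per compound, normalized against on-plate DMSO and empty-well controls, followed by dose-response curve fitting for every drug.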

C[C@@]12O[C@@H](C[C@]1(O)CO)n1c3ccccc3c3c4c(c5c6ccccc6n2c5c31)CNC4=O [Lestaurtinib]
efficacy [1]: -63.8% | AC50 cell viability [2]: 1.05 µM

COc1cc(/C=C/C(=O)CC(=O)/C=C/c2ccc(O)c(OC)c2)ccc1O [Curcumin]
efficacy [1]: -68% | AC50 cell viability [2]: 4.17 µM

C=C1C(=O)[C@@]23C(CC[C@@H]1[C@H]2O)[C@@]12CO[C@]3(O)[C@@H](O)[C@@H]1C(C)(C)CC[C@@H]2O (some centres undefined) [Oridonin]
efficacy [1]: -98.8% | AC50 cell viability [2]: 13.2 µM

CCC(C1CCC(C)C(O1)C(C)C(O)C(C)C(=O)C(CC)C2OC\3(O[C@]4(CC[C@@](C)(O4)C5CC[C@@](O)(CC)C(C)O5)C(O)\C=C3)C(C)CC2C)C([O-])=O (some centres undefined) [Salinomycin]
efficacy [1]: -98.3% | AC50 cell viability [2]: 13.2 µM

CC(C)C[C@H](NC(=O)CNC(=O)c1cc(Cl)ccc1Cl)B1OC(=O)CC(CC(=O)O)(C(=O)O)O1 (some centres undefined) [Ixazomib citrate]
efficacy [1]: -93.4% | AC50 cell viability [2]: 0.148 µM

CCC[S+](=O)([O-])c1nc(NC2CC2)cc(-c2ccc3c(ccn3C3CC(C)(C)NC(C)(C)C3)c2)n1 [NVS-CECR2-1]
efficacy [1]: -93.7% | AC50 cell viability [2]: 2.78 µM

O=C(Nc1ccccc1-c1cn2c(CN3CCNCC3)csc2n1)c1cnc2ccccc2n1 [SRT-1720]
efficacy [1]: -83.6% | AC50 cell viability [2]: 7.42 µM

CC(C)Oc1cc(Nc2nc(N[C@@H](C)c3ccc(F)cn3)ncc2Cl)n[nH]1 [AZ-23]
efficacy [1]: -67.9% | AC50 cell viability [2]: 5.25 µM

O=C(Nc1nnc(-c2ccco2)o1)c1cc(-c2ccccc2)nc2ccccc12 [STX-0119]
efficacy [1]: -69.9% | AC50 cell viability [2]: 14.8 µM

COc1cc([S+](C)(=O)[O-])ccc1Nc1nc2ccc(-c3ccc(NC(=O)[C@H](C)c4ccc(F)cc4)cc3)cn2n1
efficacy [1]: -30.6% | AC50 cell viability [2]: 0.132 µM

Cc1ncc(NC(=O)c2cccc(C(F)(F)F)c2)cc1-c1cnc(OC2CCOCC2)c(N2CCOCC2)c1 [RAF-709]
efficacy [1]: -84.5% | AC50 cell viability [2]: 0.525 µM

Cc1cc(C[S+](=O)([O-])c2ccccc2)cc(OCc2ccc(CN3CCC[C@@H]3CO)cc2)c1 [PF-543]
efficacy [1]: -92.7% | AC50 cell viability [2]: 16.6 µM

CN(C)CCN1C(=O)c2cccc3cc(NC(N)=O)cc(c23)C1=O [UNBS-5162]
efficacy [1]: -75% | AC50 cell viability [2]: 4.68 µM

C[C@@H]\1COC(=N1)\NC2=CC3=C(C=C2)N=CN=C3NC4=CC(=C(OCC5=NC=CS5)C=C4)Cl [Varlitinib tosylate]
efficacy [1]: -87.5% | AC50 cell viability [2]: 16.6 µM

C[C@]12CC[C@H]3[C@@H](CC(=C)\C4=C\C(=O)\C=C/[C@]34C)[C@@H]1CCC2=O [Exemestane]
efficacy [1]: -65% | AC50 cell viability [2]: 18.6 µM

O=C(NOCC(O)CO)c1ccc(F)c(F)c1Nc1ccc(I)cc1F (centres undefined)
efficacy [1]: -68.6% | AC50 cell viability [2]: 0.166 µM

Cc1cc(O[C@@H](CCC(F)(F)F)c2ccc(C(=O)NCCC(=O)O)cc2)cc(C)c1-c1ccc(C(C)(C)C)cc1 [Adomeglivant]
efficacy [1]: -115% | AC50 cell viability [2]: 26.3 µM

O=C(O)c1ccc(O)c2ncc(N3CCOCC3)cc12
efficacy [1]: -43% | AC50 cell viability [2]: 23.5 µM

Cc1cc(Nc2cc(CN3CCOCC3)c3nc(C)c(Cc4ccc(Cl)cc4F)n3n2)[nH]n1 [Gandotinib]
efficacy [1]: -110% | AC50 cell viability [2]: 5.9 µM

COc1cc2nc(-c3cc(F)ccc3O)nc(N[C@@H]3CNC[C@H]3C(C)(C)O)c2cc1OC
efficacy [1]: -87.7% | AC50 cell viability [2]: 3.72 µM

N#CC(c1ccnc(NCCc2cccnc2)n1)c1nc2ccccc2s1 (centres undefined) [JNK Inhibitor V]
efficacy [1]: -92.2% | AC50 cell viability [2]: 8.33 µM

COc1ccc2c(c1OC)C(=O)O[C@H]2[C@H]1c2c(cc3c(c2OC)OCO3)CCN1C [Noscapine]
efficacy [1]: -55.1% | AC50 cell viability [2]: 14.8 µM

CCOc1cc(C(=O)Nc2ccc(Cl)c(-c3nc4ccccc4[nH]3)c2)cc(OCC)c1OCC [SANT-2]
efficacy [1]: -37.4% | AC50 cell viability [2]: 2.63 µM

COC1=C(OC)C=C2C(=C1)C(=O)N(CCCN3CCOCC3)\C4=C2\C(=O)C5=C4C=C6OCOC6=C5 [Indotecan hydrochloride (LMP-400)]
efficacy [1]: -88.1% | AC50 cell viability [2]: 2.09 µM

Oc1ccc(C2CCN(c3ccnc4ccccc34)CC2)cc1O
efficacy [1]: -49% | AC50 cell viability [2]: 11.8 µM

Cn1cnc([N+](=O)[O-])c1Sc1ncnc2nc[nH]c12 [Azathioprine]
efficacy [1]: -83.7% | AC50 cell viability [2]: 2.63 µM

Cc1ccc(Nc2nnc(Cc3ccncc3)c3ccccc23)cc1Br [ACC-789]
efficacy [1]: -84.8% | AC50 cell viability [2]: 20.9 µM

Cc1noc2c1-c1ccccc1C(c1ccc(Cl)cc1)=N[C@H]2CC(N)=O [CPI-0610]
efficacy [1]: -65.4% | AC50 cell viability [2]: 1.05 µM

COC1(c2sc3c(N4CCOCC4)nc(-c4cnc(N)nc4)nc3c2C)COC1 [GNE-317]
efficacy [1]: -58.4% | AC50 cell viability [2]: 0.59 µM

CC(/C=C/[C@@H]1C[C@]1(C)c1ccc2c(c1)C(C)(C)CCC2(C)C)=C\C(=O)O
efficacy [1]: -66.8% | AC50 cell viability [2]: 23.5 µM

Cc1ccc(C(N)=O)cc1Nc1nccc(-c2cn(C(C)C)c3cnccc23)n1
efficacy [1]: -69.4% | AC50 cell viability [2]: 2.09 µM

N[S+](=O)([O-])c1ccc(Cc2c(-c3cccc(-c4ccccc4)c3)nn(-c3nc(C(=O)O)cs3)c2CC2CC2)cc1
efficacy [1]: -43.2% | AC50 cell viability [2]: 14.8 µM

CC1(CN2CCC(n3c(=O)[nH]c4ccccc43)CC2)OCc2ccccc2-n2cccc21 (centres undefined) [Zaldaride maleate]
efficacy [1]: -74.1% | AC50 cell viability [2]: 20.9 µM

c1ccc(-c2ccc(CNc3nc(-c4ccccn4)nnc3-c3ccccc3)cc2)cc1 [ML-228]
efficacy [1]: -77% | AC50 cell viability [2]: 1.48 µM

CC/C(=C(/CC)c1ccc(O)cc1)c1ccc(O)cc1 [Diethylstilbestrol]
efficacy [1]: -47.2% | AC50 cell viability [2]: 18.6 µM

CC(C)NC(=O)COc1cccc(-c2nc(Nc3ccc4[nH]ncc4c3)c3ccccc3n2)c1 [KD-025]
efficacy [1]: -66.8% | AC50 cell viability [2]: 8.33 µM

CCC(=C/[C@H](C)C/C=C/C(C)=C/[C@@H](C)C(=O)[C@@H](C)[C@H](O)[C@@H](C)C/C(C)=C/C(=O)O)/C=C/[C@@H]1OC(=O)C=C[C@@H]1C [Leptomycin B]
efficacy [1]: -80.9% | AC50 cell viability [2]: 0.00372 µM

COC(=O)c1ccc2c(c1)NC(=O)/C2=C(\Nc1ccc(N(C)C(=O)CN2CCN(C)CC2)cc1)c1ccccc1 [Nintedanib]
efficacy [1]: -92.2% | AC50 cell viability [2]: 5.9 µM

CC(C)(C)c1[nH]cnc1/C=c1\[nH]c(=O)/c(=C/c2ccccc2)[nH]c1=O [Plinabulin]
efficacy [1]: -58.4% | AC50 cell viability [2]: 0.0525 µM

CCNc1cc(NC2CCC(O)CC2)nc(Nc2ccc3c(ccn3Cc3ccccc3)c2)n1 (centres undefined) [Cdk4/6 Inhibitor IV]
efficacy [1]: -51.1% | AC50 cell viability [2]: 20.9 µM

COc1ccc(Cc2nccc3cc(OC)c(OC)cc23)cc1OC [Papaverine hydrochloride]
efficacy [1]: -61.1% | AC50 cell viability [2]: 4.17 µM

CN1CCN(C(=O)c2ccc3cc(CCNc4ncnc5ccc(C#N)cc45)ccc3c2)CC1 [Senexin-B]
efficacy [1]: -72.9% | AC50 cell viability [2]: 13.2 µM
